In experiment [1] the target is T1, Alpha-2C adrenergic receptor (Homo sapiens, UniProt P18825).
T1 sequence (P18825 whole entry): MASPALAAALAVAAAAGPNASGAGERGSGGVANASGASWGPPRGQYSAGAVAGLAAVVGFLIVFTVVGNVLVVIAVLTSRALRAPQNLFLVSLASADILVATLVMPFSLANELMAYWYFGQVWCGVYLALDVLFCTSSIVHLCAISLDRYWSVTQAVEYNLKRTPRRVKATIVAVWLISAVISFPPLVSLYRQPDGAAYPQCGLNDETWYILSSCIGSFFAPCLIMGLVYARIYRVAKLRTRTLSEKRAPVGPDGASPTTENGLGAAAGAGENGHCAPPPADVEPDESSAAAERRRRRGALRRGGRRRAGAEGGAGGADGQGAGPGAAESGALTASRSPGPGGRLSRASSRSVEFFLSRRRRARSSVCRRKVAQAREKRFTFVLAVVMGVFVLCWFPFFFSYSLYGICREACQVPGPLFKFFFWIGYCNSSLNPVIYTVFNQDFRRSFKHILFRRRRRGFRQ
Type of experiment: functional.

For experiment [2], the target named is Vasopressin V2 receptor (Homo sapiens, UniProt P30518).
Vasopressin V2 receptor, sequence (P30518 whole entry): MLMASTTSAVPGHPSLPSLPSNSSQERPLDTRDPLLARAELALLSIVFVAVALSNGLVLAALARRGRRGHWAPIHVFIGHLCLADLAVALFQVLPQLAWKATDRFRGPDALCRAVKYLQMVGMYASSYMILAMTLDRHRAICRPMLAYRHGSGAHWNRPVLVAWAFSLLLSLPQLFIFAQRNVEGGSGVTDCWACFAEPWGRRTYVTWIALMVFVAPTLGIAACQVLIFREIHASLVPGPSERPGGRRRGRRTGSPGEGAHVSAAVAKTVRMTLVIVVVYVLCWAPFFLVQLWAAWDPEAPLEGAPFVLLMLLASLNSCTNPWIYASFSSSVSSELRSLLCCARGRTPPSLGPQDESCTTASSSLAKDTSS
Experiment [3] deals with T2, 5-hydroxytryptamine receptor 2C (Homo sapiens, UniProt P28335).
T2 sequence (P28335 whole entry): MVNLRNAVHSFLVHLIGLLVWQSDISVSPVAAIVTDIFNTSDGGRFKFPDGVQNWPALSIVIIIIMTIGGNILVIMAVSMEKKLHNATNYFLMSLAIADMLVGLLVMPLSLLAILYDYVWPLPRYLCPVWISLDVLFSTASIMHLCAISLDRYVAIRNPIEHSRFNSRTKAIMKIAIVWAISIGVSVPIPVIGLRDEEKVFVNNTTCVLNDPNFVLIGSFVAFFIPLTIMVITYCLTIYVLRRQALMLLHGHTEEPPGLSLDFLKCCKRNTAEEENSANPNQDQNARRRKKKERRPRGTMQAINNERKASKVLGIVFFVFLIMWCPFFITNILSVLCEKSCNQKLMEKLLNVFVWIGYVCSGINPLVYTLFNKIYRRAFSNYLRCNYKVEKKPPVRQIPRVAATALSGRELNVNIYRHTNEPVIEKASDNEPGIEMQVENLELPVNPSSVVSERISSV

Experiment [4] has as its target Melanocortin receptor 3 (Homo sapiens, UniProt P41968).
The target in experiment [5] is T3, Muscarinic acetylcholine receptor M1 (Homo sapiens, UniProt P11229).
T3 sequence (P11229 whole entry): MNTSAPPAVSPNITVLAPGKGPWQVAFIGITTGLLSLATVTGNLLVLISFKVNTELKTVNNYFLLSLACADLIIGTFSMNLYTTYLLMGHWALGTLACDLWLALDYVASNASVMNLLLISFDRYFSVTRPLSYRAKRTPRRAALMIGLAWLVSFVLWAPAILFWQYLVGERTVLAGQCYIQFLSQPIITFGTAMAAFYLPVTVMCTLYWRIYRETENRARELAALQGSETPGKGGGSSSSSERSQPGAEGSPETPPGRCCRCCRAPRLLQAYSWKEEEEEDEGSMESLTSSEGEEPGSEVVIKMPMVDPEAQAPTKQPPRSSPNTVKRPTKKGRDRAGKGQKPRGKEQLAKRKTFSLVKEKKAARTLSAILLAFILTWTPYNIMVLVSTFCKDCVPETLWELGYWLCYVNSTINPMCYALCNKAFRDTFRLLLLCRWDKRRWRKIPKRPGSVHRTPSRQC
It is filed as functional, cell-based.

In experiment [6] the target is T4, Androgen receptor (Homo sapiens, UniProt P10275).
T4 sequence (P10275 whole entry): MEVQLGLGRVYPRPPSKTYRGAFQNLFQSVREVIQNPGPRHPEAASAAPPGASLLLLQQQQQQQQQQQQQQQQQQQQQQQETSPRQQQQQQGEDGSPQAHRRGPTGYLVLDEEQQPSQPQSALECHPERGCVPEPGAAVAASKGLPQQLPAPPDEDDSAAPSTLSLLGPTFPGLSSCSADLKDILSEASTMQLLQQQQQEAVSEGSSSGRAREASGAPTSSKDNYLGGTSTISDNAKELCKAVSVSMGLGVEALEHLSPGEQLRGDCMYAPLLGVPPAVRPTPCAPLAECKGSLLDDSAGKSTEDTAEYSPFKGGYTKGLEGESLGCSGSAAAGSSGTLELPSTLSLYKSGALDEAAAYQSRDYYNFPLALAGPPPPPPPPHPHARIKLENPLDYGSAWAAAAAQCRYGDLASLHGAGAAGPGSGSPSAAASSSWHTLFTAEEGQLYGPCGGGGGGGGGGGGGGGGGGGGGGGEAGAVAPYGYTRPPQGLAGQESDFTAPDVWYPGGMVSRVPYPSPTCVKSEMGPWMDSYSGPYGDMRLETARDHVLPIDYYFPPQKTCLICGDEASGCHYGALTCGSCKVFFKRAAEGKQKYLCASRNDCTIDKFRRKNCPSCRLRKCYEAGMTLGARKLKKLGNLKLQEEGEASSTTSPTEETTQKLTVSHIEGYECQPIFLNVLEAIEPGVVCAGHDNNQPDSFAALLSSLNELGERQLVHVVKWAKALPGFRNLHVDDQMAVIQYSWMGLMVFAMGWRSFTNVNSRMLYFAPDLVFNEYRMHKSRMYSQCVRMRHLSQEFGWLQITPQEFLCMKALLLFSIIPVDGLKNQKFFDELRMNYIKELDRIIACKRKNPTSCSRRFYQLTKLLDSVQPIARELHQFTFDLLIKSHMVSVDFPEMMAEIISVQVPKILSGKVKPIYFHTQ

The target in experiment [7] is T3, Muscarinic acetylcholine receptor M1. It is filed as functional, cell-based. This is another data set of the same source.

Data on 22 molecules can be found in ChEMBL document CHEMBL5291721, “A preclinical secondary pharmacology resource illuminates target-adverse drug reaction associations of marketed drugs” (Nat Commun, 2023).

SMILES strings stand for the structures.
Also: assay procedure not described here.

Melanocortin receptor 3, sequence (P41968 whole entry): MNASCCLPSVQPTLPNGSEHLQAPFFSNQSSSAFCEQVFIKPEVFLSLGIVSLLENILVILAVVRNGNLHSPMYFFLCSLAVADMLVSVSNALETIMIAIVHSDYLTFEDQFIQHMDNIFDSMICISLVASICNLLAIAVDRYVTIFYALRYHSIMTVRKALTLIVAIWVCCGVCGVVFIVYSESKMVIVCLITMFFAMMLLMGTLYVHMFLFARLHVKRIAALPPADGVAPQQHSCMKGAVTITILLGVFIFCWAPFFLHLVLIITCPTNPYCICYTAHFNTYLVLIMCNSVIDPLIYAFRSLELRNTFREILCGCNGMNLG

As a reminder, the AC50 is the concentration at which the activity in the assay is half-maximal. High values mean activity only at high concentration, low ones activity at low concentration. Consider `C[C@]1(COc2ccc(N3CCC(Oc4ccc(OC(F)(F)F)cc4)CC3)cc2)Cn2cc([N+](=O)[O-])nc2O1`, for which the AC50 in experiment [1] is greater than 10 µM; in experiment [2], greater than 30 µM; in experiment [3] it was greater than 30 µM; in experiment [4] it was greater than 30 µM; in experiment [5] it was greater than 30 µM; in experiment [6], greater than 30 µM. This molecule showed an AC50 in experiment [7] greater than 30 µM.
As for `COC(=O)C1=C(C)NC(C)=C(C(=O)O[C@H]2CCN(Cc3ccccc3)C2)[C@H]1c1cccc([N+](=O)[O-])c1` [BARNIDIPINE], the AC50 in experiment [5] was 4.07 µM; in experiment [6], greater than 30 µM; in experiment [7], greater than 30 µM.
Consider `Cc1nnc(SCC2=C(C(=O)O)N3C(=O)[C@@H](NC(=O)Cn4cc(Cl)c(=O)c(Cl)c4)[C@H]3SC2)s1` [CEFAZEDONE], for which the AC50 in experiment [5], in experiment [6] and in experiment [7] was greater than 30 µM throughout.
As to `CCC[C@@H]1C[C@@H](C(=O)N[C@@H]([C@H]2O[C@H](SC)[C@H](OP(=O)(O)O)[C@@H](O)[C@H]2O)[C@H](C)Cl)N(C)C1` [CLINDAMYCIN PHOSPHATE], the AC50 in experiment [5], in experiment [6] and in experiment [7] was greater than 30 µM in each case.
Turning to `Nc1ccncc1` [DALFAMPRIDINE], the half-maximal activity concentration (AC50) was greater than 3 µM in experiment [5], greater than 30 µM in experiment [6] and 27.9 µM in experiment [7].
In the same order, the values of `Cc1onc(-c2c(Cl)cccc2Cl)c1C(=O)N[C@@H]1C(=O)N2[C@@H]1SC(C)(C)[C@@H]2C(=O)O` [DICLOXACILLIN] are greater than 30 µM, greater than 30 µM and greater than 30 µM.
Regarding `C[C@@H](O)[C@H]1C(=O)N2C(C(=O)O)=C([C@H]3CCCO3)S[C@H]12` [FAROPENEM], the AC50 in experiment [5], in experiment [6] and in experiment [7] was greater than 30 µM in each case.
Turning to `COCCOc1cnc(NS(=O)(=O)c2ccccc2)nc1` [GLYMIDINE], the AC50 in experiment [5], in experiment [6] and in experiment [7] was greater than 30 µM throughout.
Regarding `CCC(=O)O[C@]1(C(=O)COC(C)=O)CC[C@H]2[C@@H]3CCC4=CC(=O)CC[C@]4(C)[C@H]3[C@@H](O)C[C@@]21C` [HYDROCORTISONE ACEPONATE], the AC50 is 19.3 µM in experiment [5], 0.314 µM in experiment [6] and greater than 30 µM in experiment [7].
For `NC(=O)NCCC[C@H](N)C(=O)O` [L-CITRULLINE] the same measures were greater than 30 µM, greater than 30 µM and greater than 30 µM.
For `CC(=O)O[C@H]1C[C@H](O[C@H]2[C@@H](O)C[C@H](O[C@H]3[C@@H](O)C[C@H](O[C@H]4CC[C@@]5(C)[C@H](CC[C@@H]6[C@@H]5C[C@@H](O)[C@]5(C)[C@@H](C7=CC(=O)OC7)CC[C@]65O)C4)O[C@@H]3C)O[C@@H]2C)O[C@H](C)[C@H]1O[C@@H]1O[C@H](CO)[C@@H](O)[C@H](O)[C@H]1O` [LANATOSIDE C], the AC50 in experiment [5], in experiment [6] and in experiment [7] was greater than 30 µM in each case.
With `Nc1nc(N)nc(Nc2ccc([As]3SCC(CO)S3)cc2)n1` (stereo unspecified) [MELARSOPROL], the values for the AC50 in experiment [5], in experiment [6] and in experiment [7] were 22.5 µM, greater than 30 µM and greater than 30 µM, respectively.
In the case of `Cc1cc(CCN2CCN(c3cccc(Cl)c3)CC2)n[nH]1` [MEPIPRAZOLE], the figures for the AC50 in experiment [5], in experiment [6] and in experiment [7] were 26.3 µM, greater than 30 µM and greater than 30 µM, respectively.
`CC[N+](C)(CC)CCOC(=O)C1c2ccccc2Oc2ccccc21` [METHANTHELINE]: the figures for the AC50 in experiment [5], in experiment [6] and in experiment [7] were 0.0287 µM, greater than 30 µM and greater than 30 µM, respectively.
`CO[C@H]1[C@@H](O)C[C@H](O[C@H]2[C@@H](O)C[C@H](O[C@H]3[C@@H](O)C[C@H](O[C@H]4CC[C@@]5(C)[C@H](CC[C@@H]6[C@@H]5C[C@@H](O)[C@]5(C)[C@@H](C7=CC(=O)OC7)CC[C@]65O)C4)O[C@@H]3C)O[C@@H]2C)O[C@@H]1C` [METILDIGOXIN]: the AC50 in experiment [5], in experiment [6] and in experiment [7] was greater than 30 µM each time.
As to `CC1(C)S[C@@H]2[C@H](NC(=O)[C@H](NC(=O)N3CCN(S(C)(=O)=O)C3=O)c3ccccc3)C(=O)N2[C@H]1C(=O)O` [MEZLOCILLIN], the AC50 in experiment [5], in experiment [6] and in experiment [7] was greater than 30 µM in each case.
Turning to `CC(c1ccc(Cl)c(Cl)c1)N1N=C(N)CC1=O` (stereo unspecified) [MUZOLIMINE], the AC50 in experiment [5], in experiment [6] and in experiment [7] was greater than 30 µM throughout.
With `c1ccc2c(CC3=NCCN3)cccc2c1` [NAPHAZOLINE], the half-maximal activity concentration (AC50) is 0.33 µM in experiment [1], greater than 30 µM in experiment [5], greater than 30 µM in experiment [6] and greater than 30 µM in experiment [7].
As for `c1cc(CN2CCCNCCNCCCNCC2)ccc1CN1CCCNCCNCCCNCC1` [PLERIXAFOR], the AC50 in experiment [5], in experiment [6] and in experiment [7] was greater than 30 µM throughout.
As for `CCCC(=O)O[C@H]1[C@H](C)O[C@@H](O[C@H]2[C@H](N(C)C)[C@@H](O)[C@H](O[C@H]3[C@@H](CC=O)C[C@@H](C)[C@@H](O)/C=C/C=C/C[C@@H](C)OC(=O)C[C@@H](O)[C@@H]3OC)O[C@@H]2C)C[C@@]1(C)OC(=O)CC` [ROKITAMYCIN], the AC50 in experiment [5], in experiment [6] and in experiment [7] was greater than 30 µM in each case.
As to `CCCCCCCCCCCCCCCCCC(=O)NCCCC[C@H](NC(=O)CC[C@@H](NC(=O)[C@H](C)NC(=O)[C@@H](C)O[C@H]1[C@H](O)[C@@H](CO)OC(O)[C@@H]1NC(C)=O)C(N)=O)C(=O)O` (stereo partly specified) [ROMURTIDE], the figures for the AC50 in experiment [5], in experiment [6] and in experiment [7] were 6.71 µM, 5.69 µM and greater than 30 µM, respectively.
As to `CCOC(=O)[C@H](CCc1ccccc1)N[C@H]1CS[C@H](c2cccs2)CN(CC(=O)O)C1=O` [TEMOCAPRIL], the AC50 in experiment [5], in experiment [6] and in experiment [7] was greater than 30 µM in each case.
